Data from PubChem BioAssay AID248 (DTP/NCI, 2004).
Inconclusive results and toxic doses are left out. Cut-off read from the data, not from the text of the source: active = T/C of 150% or more; inactive = T/C below 125%.

Tested on: L1210 leukemia ip in BDF1 mice, survival T/C
Experiment: NCI In Vivo Anticancer Drug Screen. Data for tumor model L1210 Leukemia (intraperitoneal) in B6D2F1 (BDF1) mice
Conditions: endpoint: mean survival time, higher = longer survival
Summary of the method: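 In this screen, tumor-bearing mice given compound are compared to those given vehicle, and their survival values are reported as a treated-to-control quotient.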

[1] = dose: 100.0 mg/kg/injection, schedule: Q01DX001 (ip), vehicle: saline
[2] = dose: 100.0 mg/kg/injection, schedule: Q04DX003 (ip), vehicle: saline
[3] = dose: 100.0 mg/kg/injection, schedule: Q01DX009 (ip), vehicle: Klucel (hydroxypropylcellulose) (HPC)
[4] = dose: 200.0 mg/kg/injection, schedule: Q01DX009 (ip), vehicle: Klucel (hydroxypropylcellulose) (HPC)
[5] = dose: 100.0 mg/kg/injection, schedule: Q04DX003 (ip), vehicle: Klucel (hydroxypropylcellulose) (HPC)
[6] = dose: 200.0 mg/kg/injection, schedule: Q04DX003 (ip), vehicle: Klucel (hydroxypropylcellulose) (HPC)
[7] = dose: 400.0 mg/kg/injection, schedule: Q04DX003 (ip), vehicle: Klucel (hydroxypropylcellulose) (HPC)

Measured: T/C

Cc1c2oc3c(C)ccc(C(=O)NC4C(=O)NC(C(C)C)C(=O)N5CCCC5C(=O)N(C)CC(=O)N(C)C(C(C)C)C(=O)OC4C)c3nc-2c(C(=O)NC2C(=O)NC(C(C)C)C(=O)N3CCCC3C(=O)N(C)CC(=O)N(C)C(C(C)C)C(=O)OC2C)cc1=O (stereo not drawn)
inactive: dose: 0.1 mg/kg/injection, schedule: Q01DX009 (ip), vehicle: saline + alcohol 101 % of control | dose: 0.2 mg/kg/injection, schedule: Q01DX001 (ip), vehicle: saline + alcohol 102 % of control | dose: 0.2 mg/kg/injection, schedule: Q01DX009 (ip), vehicle: saline + alcohol 107 % of control | dose: 0.25 mg/kg/injection, schedule: Q01DX009 (ip), vehicle: saline + alcohol 101 % of control | dose: 0.4 mg/kg/injection, schedule: Q01DX001 (ip), vehicle: saline + alcohol 104 % of control | dose: 0.4 mg/kg/injection, schedule: Q01DX009 (ip), vehicle: saline + alcohol 112 % of control | dose: 0.5 mg/kg/injection, schedule: Q01DX009 (ip), vehicle: saline + alcohol 97 % of control | dose: 0.6 mg/kg/injection, schedule: Q04DX003 (ip), vehicle: saline + alcohol 101 % of control | dose: 0.8 mg/kg/injection, schedule: Q01DX001 (ip), vehicle: saline + alcohol 104 % of control | dose: 1.0 mg/kg/injection, schedule: Q01DX009 (ip), vehicle: saline + alcohol 93 % of control | dose: 1.2 mg/kg/injection, schedule: Q04DX003 (ip), vehicle: saline + alcohol 109 % of control | dose: 1.25 mg/kg/injection, schedule: Q04DX003 (ip), vehicle: saline + alcohol 96 % of control | dose: 1.6 mg/kg/injection, schedule: Q01DX001 (ip), vehicle: saline + alcohol 106 % of control | dose: 2.0 mg/kg/injection, schedule: Q01DX009 (ip), vehicle: saline + alcohol 106 % of control | dose: 2.4 mg/kg/injection, schedule: Q04DX003 (ip), vehicle: saline + alcohol 119 % of control | dose: 2.5 mg/kg/injection, schedule: Q04DX003 (ip), vehicle: saline + alcohol 97 % of control | dose: 3.2 mg/kg/injection, schedule: Q01DX001 (ip), vehicle: saline + alcohol 111 % of control | dose: 4.0 mg/kg/injection, schedule: Q01DX009 (ip), vehicle: saline + alcohol 103 % of control | dose: 5.0 mg/kg/injection, schedule: Q04DX003 (ip), vehicle: saline + alcohol 105 % of control | dose: 6.4 mg/kg/injection, schedule: Q01DX001 (ip), vehicle: saline + alcohol 117 % of control | dose: 10.0 mg/kg/injection, schedule: Q04DX003 (ip), vehicle: saline + alcohol 106 % of control | dose: 20.0 mg/kg/injection, schedule: Q04DX003 (ip), vehicle: saline + alcohol 116 % of control | dose: 12.5 micrograms/kg/injection, schedule: Q01DX009 (ip), vehicle: saline + alcohol 101 % of control | dose: 50.0 micrograms/kg/injection, schedule: Q01DX009 (ip), vehicle: saline + alcohol 103 % of control | dose: 75.0 micrograms/kg/injection, schedule: Q04DX003 (ip), vehicle: saline + alcohol 104 % of control | dose: 150.0 micrograms/kg/injection, schedule: Q04DX003 (ip), vehicle: saline + alcohol 102 % of control | dose: 300.0 micrograms/kg/injection, schedule: Q04DX003 (ip), vehicle: saline + alcohol 106 % of control

COc1ccccc1OC(=O)Nc1ccc(S(=O)(=O)N(C)C)cc1
inactive: [1] 97 % of control | [2] 97 % of control | dose: 200.0 mg/kg/injection, schedule: Q01DX001 (ip), vehicle: saline 100 % of control | dose: 200.0 mg/kg/injection, schedule: Q04DX003 (ip), vehicle: saline 95 % of control | dose: 400.0 mg/kg/injection, schedule: Q01DX001 (ip), vehicle: saline 91 % of control | dose: 400.0 mg/kg/injection, schedule: Q04DX003 (ip), vehicle: saline 97 % of control

C1CCCCCC(C2CCCCCCCCCCC2)CCCCC1
inactive: dose: 25.0 mg/kg/injection, schedule: Q01DX009 (ip), vehicle: acetone 94 % of control | dose: 25.0 mg/kg/injection, schedule: Q04DX003 (ip), vehicle: saline 94 % of control | dose: 50.0 mg/kg/injection, schedule: Q01DX009 (ip), vehicle: acetone 93 % of control | dose: 50.0 mg/kg/injection, schedule: Q04DX003 (ip), vehicle: saline 92 % of control | [1] 92 % of control | dose: 100.0 mg/kg/injection, schedule: Q01DX009 (ip), vehicle: acetone 98 % of control | [2] 92 % of control | dose: 150.0 mg/kg/injection, schedule: Q01DX009 (ip), vehicle: saline 90 % of control | dose: 225.0 mg/kg/injection, schedule: Q01DX009 (ip), vehicle: saline 88 % of control | dose: 335.0 mg/kg/injection, schedule: Q01DX009 (ip), vehicle: saline 93 % of control

c1ccc(-c2ccc(-c3c(-c4ccccc4)ccc(-c4ccccc4)c3-c3ccccc3)cc2)cc1
inactive: dose: 100.0 mg/kg/injection, schedule: Q01DX001 (ip), vehicle: saline with Tween-80 104 % of control | dose: 200.0 mg/kg/injection, schedule: Q01DX001 (ip), vehicle: saline with Tween-80 104 % of control | dose: 400.0 mg/kg/injection, schedule: Q01DX001 (ip), vehicle: saline with Tween-80 112 % of control

[O-][N+](=C(c1ccccc1)c1ccccc1)c1ccccc1
inactive: dose: 100.0 mg/kg/injection, schedule: Q04DX003 (ip), vehicle: saline with Tween-80 101 % of control | dose: 200.0 mg/kg/injection, schedule: Q04DX003 (ip), vehicle: saline with Tween-80 93 % of control | dose: 400.0 mg/kg/injection, schedule: Q04DX003 (ip), vehicle: saline with Tween-80 90 % of control

O=C1NCC(Nc2ccc(Br)cc2)C(=O)N1 (stereo not drawn)
inactive: dose: 100.0 mg/kg/injection, schedule: Q01DX Z (ip), vehicle: methylcellulose (MC) 96 % of control | dose: 200.0 mg/kg/injection, schedule: Q01DX Z (ip), vehicle: methylcellulose (MC) 94 % of control

COc1ccc(-n2c(=O)c(N=Nc3ccc(Br)cc3)c(O)n(-c3ccc(Cl)cc3)c2=S)cc1
inactive: dose: 37.5 mg/kg/injection, schedule: Q01DX001 (ip), vehicle: Klucel (hydroxypropylcellulose) (HPC) 102 % of control | dose: 75.0 mg/kg/injection, schedule: Q01DX001 (ip), vehicle: Klucel (hydroxypropylcellulose) (HPC) 101 % of control | dose: 150.0 mg/kg/injection, schedule: Q01DX001 (ip), vehicle: Klucel (hydroxypropylcellulose) (HPC) 104 % of control

O=C1CC(=O)N(Cc2ccccc2)C(=O)N1
inactive: dose: 100.0 mg/kg/injection, schedule: Q01DX001 (ip), vehicle: carboxymethylcellulose (CMC) 86 % of control | dose: 200.0 mg/kg/injection, schedule: Q01DX001 (ip), vehicle: carboxymethylcellulose (CMC) 95 % of control

N#CC1(N2CCC3(CC2)OCCO3)CCCCC1
inactive: dose: 12.5 mg/kg/injection, schedule: Q01DX009 (ip), vehicle: Klucel (hydroxypropylcellulose) (HPC) 101 % of control | dose: 12.5 mg/kg/injection, schedule: Q04DX003 (ip), vehicle: Klucel (hydroxypropylcellulose) (HPC) 91 % of control | dose: 25.0 mg/kg/injection, schedule: Q01DX009 (ip), vehicle: Klucel (hydroxypropylcellulose) (HPC) 95 % of control | dose: 25.0 mg/kg/injection, schedule: Q04DX002 (ip), vehicle: Klucel (hydroxypropylcellulose) (HPC) 107 % of control | dose: 25.0 mg/kg/injection, schedule: Q04DX003 (ip), vehicle: Klucel (hydroxypropylcellulose) (HPC) 100 % of control | dose: 50.0 mg/kg/injection, schedule: Q04DX002 (ip), vehicle: Klucel (hydroxypropylcellulose) (HPC) 96 % of control | dose: 100.0 mg/kg/injection, schedule: Q04DX002 (ip), vehicle: Klucel (hydroxypropylcellulose) (HPC) 95 % of control

c1ccc(-c2cc(-c3ccccc3)cc(-c3ccccc3)c2)cc1
inactive: dose: 1.56 mg/kg/injection, schedule: Q01DX009 (ip), vehicle: saline 98 % of control | dose: 3.12 mg/kg/injection, schedule: Q01DX009 (ip), vehicle: saline 95 % of control | dose: 6.25 mg/kg/injection, schedule: Q01DX009 (ip), vehicle: saline 93 % of control

O=C1C2=C(NC1(c1ccccc1)c1ccccc1)c1ccccc1C2
inactive: dose: 50.0 mg/kg/injection, schedule: Q01DX009 (ip), vehicle: Klucel (hydroxypropylcellulose) (HPC) 101 % of control | [3] 105 % of control | [4] 97 % of control

CCCCCCCC(=O)CCCC
inactive: [3] 101 % of control | [5] 103 % of control | [4] 98 % of control | [6] 101 % of control | dose: 400.0 mg/kg/injection, schedule: Q01DX009 (ip), vehicle: Klucel (hydroxypropylcellulose) (HPC) 102 % of control | [7] 101 % of control

CC(=O)Nc1ccc2c(c1)Cc1cc(Br)ccc1-2
inactive: [5] 100 % of control | [6] 100 % of control | [7] 103 % of control
